One data set has as its target SERT. The settings on record: read-out: Ki SERT; ref Woolverton et al., Psychopharmacology (2001); cited from earlier work.
A further data set has as its target K+ Channel hERG (Homo sapiens, UniProt Q12809). As to the kind of experiment: receptor screen, K+ Channel hERG. The settings on record: read-out: Ki K+ Channel hERG; receptor screen, [3H]Astemizole. It is filed as binding.
The next data set addresses DAT. The settings on record: read-out: Ki DAT; ref Newman and Katz (2009); cited from earlier work.
The target of another data set is T1, Muscarinic M2 (Homo sapiens, UniProt P08172).
T1 sequence (P08172 1-466): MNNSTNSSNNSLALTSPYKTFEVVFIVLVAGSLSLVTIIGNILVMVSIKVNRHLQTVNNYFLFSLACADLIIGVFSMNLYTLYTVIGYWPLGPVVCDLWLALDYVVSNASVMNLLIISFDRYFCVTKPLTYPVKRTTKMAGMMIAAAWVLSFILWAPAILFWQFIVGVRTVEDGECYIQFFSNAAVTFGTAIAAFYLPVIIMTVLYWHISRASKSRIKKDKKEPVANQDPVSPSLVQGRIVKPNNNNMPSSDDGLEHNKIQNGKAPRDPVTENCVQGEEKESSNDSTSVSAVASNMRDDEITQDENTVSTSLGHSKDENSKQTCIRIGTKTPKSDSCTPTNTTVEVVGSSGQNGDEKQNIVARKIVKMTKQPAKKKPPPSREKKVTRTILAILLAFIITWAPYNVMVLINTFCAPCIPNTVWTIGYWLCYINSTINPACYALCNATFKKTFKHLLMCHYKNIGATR
As to the kind of experiment: receptor screen, Muscarinic M2. The settings on record: read-out: Ki Muscarinic M2, [3H]N-methylscopolamine. It is filed as binding.

The next data set addresses T2, Adenosine A1 (Homo sapiens, UniProt P30542).
T2 sequence (P30542 1-326): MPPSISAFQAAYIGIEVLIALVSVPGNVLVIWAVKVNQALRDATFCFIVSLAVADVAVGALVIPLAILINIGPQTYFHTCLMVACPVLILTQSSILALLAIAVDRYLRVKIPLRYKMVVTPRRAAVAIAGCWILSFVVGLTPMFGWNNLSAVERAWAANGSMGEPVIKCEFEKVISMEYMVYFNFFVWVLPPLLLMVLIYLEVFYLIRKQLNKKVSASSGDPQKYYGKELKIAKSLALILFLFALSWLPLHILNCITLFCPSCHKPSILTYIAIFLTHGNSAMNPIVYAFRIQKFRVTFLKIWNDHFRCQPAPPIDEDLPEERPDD
In words: receptor screen, Adenosine A1. The class given is binding. The settings on record: [3H]DPCPX, inactive = displacement at 10,000 nM less than 75%.

Another data set relates to rats. In words: Place conditioning. It is filed as in vivo. The settings on record: rat, i.p. (1 to 10 mg/kg), injected immediately before conditioning sessions.
The next data set has as its target NET. To be noted: read-out: Ki NET; ref Woolverton et al., Psychopharmacology (2001); cited from earlier work.
Another data set deals with Muscarinic M3 (Homo sapiens, UniProt P20309). As to the kind of experiment: receptor screen, Muscarinic M3. It is filed as binding. The settings on record: read-out: Ki Muscarinic M3, [3H]N-methylscopolamine.
In data set [1] the test system is Glutamate, NMDA, phencyclidine. In words: receptor screen, Glutamate, NMDA, phencyclidine. It is filed as binding, Rat. The settings on record: [3H]TCP, inactive = displacement at 10,000 nM less than 75%.

By Ki is commonly meant a measure of affinity in units of concentration, obtained from inhibition or displacement.

K+ Channel hERG, sequence (Q12809 whole entry): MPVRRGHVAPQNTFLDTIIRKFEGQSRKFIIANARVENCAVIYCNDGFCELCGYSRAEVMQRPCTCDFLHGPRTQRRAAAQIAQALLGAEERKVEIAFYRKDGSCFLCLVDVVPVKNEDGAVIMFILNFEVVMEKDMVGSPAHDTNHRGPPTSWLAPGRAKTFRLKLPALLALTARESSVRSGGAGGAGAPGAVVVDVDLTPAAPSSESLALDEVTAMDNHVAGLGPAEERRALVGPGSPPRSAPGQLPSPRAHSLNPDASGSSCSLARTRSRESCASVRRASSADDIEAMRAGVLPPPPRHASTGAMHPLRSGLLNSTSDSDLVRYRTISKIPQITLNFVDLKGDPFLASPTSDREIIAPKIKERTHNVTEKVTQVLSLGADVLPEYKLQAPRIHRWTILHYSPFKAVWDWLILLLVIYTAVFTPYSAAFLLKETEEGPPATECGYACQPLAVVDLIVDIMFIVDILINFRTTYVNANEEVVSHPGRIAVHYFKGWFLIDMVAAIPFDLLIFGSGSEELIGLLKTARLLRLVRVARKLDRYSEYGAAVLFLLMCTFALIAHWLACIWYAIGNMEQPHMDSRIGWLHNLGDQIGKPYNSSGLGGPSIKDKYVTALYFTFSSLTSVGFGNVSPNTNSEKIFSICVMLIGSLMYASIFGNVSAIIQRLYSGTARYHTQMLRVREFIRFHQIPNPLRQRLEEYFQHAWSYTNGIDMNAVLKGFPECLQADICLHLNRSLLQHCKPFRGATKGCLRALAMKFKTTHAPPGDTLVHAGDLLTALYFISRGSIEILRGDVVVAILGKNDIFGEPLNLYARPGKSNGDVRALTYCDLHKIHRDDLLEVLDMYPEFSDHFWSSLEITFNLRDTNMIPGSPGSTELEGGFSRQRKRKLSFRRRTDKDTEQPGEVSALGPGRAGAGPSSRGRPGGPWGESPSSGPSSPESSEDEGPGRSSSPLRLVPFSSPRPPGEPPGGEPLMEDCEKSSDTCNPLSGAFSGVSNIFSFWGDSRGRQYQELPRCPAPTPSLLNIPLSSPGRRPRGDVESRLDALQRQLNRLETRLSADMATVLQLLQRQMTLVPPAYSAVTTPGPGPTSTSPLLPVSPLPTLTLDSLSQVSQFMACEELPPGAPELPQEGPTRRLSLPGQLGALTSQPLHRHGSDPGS
Muscarinic M3, sequence (P20309 whole entry): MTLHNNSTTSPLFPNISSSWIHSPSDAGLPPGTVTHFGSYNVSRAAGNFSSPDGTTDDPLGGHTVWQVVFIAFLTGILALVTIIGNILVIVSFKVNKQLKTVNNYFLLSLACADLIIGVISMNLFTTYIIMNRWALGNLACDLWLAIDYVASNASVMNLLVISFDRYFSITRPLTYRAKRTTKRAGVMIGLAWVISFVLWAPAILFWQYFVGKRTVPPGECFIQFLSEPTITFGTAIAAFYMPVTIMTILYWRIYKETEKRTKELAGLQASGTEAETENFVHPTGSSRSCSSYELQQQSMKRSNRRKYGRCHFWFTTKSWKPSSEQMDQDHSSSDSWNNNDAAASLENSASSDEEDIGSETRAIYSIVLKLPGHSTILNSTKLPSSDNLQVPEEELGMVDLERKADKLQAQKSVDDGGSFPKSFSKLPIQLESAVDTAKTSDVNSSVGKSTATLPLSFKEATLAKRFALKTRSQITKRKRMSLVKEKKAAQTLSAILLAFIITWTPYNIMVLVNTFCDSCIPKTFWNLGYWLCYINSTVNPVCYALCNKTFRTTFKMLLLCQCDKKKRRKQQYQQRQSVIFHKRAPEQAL

As to `CN1C2CCC1CC(OC(c1ccccc1)c1ccc(Cl)cc1)C2` (stereo not drawn) [4-Cl-BZT, 4′-chloro-3α-(diphenylmethoxy)tropane], the Ki on SERT is 5120 ± 395 nM; on K+ Channel hERG, 804 ± 300 nM; at DAT it was 10.5 ± 1.21 nM; on Muscarinic M2, 5.88 ± 0.63 nM; on NET it was 1470 ± 180 nM; at Muscarinic M3 it was 0.384 ± 0.043 nM. At Adenosine A1, the “Ki Adenosine A1” value is “inactive”. Besides, the “place conditioning (time allocated to compound-paired compartment)” value in the data set on rats is “did not increase the time allocated to the compound-paired compartment”. Besides, in data set [1], the “Ki Glutamate, NMDA, phencyclidine” value was “inactive”.

The values are drawn from article PMC3758386 (Psychopharmacology, 2013).
